The target in this assay is T1, neuropilin 1 (Nrp1) (Mus musculus, UniProt P97333).
T1 construct: a1a2 domain (residues 23−269), His6-tag, pCold-ProS2 vector, E. coli
T1 sequence (P97333 23-269): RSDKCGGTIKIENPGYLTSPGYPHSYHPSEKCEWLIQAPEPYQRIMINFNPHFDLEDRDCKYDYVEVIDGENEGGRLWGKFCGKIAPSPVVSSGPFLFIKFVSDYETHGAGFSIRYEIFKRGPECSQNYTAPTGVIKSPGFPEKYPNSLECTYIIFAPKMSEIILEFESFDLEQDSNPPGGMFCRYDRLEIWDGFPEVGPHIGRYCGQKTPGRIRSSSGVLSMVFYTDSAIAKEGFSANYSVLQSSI
Nature of the assay: quantitative fluorescent dot-blot saturation binding to purified a1a2.

d4t,8t-NBD-Ceramide registered a Kd of 114 ± 5 nM.

Usually Kd stands for the concentration at which binding is half-saturated. Read a low Kd as tighter binding.

These data come from PMC7072815, “Nrp1 is Activated by Konjac Ceramide Binding-Induced Structural Rigidification of the a1a2 Domain” (Cells, 2020).
